Tests used:
Human Calpain 1/NS1 = target: T1, Human Calpain 1/NS1 (Homo sapiens, UniProt P07384); test: Biochemical inhibition of Calpain 1, continuous fluorescence (FRET) assay; conditions: mean; class symbols; read-out: Human Calpain 1/NS1 IC50 (nM)_MEAN
T1 sequence (P07384 1-714): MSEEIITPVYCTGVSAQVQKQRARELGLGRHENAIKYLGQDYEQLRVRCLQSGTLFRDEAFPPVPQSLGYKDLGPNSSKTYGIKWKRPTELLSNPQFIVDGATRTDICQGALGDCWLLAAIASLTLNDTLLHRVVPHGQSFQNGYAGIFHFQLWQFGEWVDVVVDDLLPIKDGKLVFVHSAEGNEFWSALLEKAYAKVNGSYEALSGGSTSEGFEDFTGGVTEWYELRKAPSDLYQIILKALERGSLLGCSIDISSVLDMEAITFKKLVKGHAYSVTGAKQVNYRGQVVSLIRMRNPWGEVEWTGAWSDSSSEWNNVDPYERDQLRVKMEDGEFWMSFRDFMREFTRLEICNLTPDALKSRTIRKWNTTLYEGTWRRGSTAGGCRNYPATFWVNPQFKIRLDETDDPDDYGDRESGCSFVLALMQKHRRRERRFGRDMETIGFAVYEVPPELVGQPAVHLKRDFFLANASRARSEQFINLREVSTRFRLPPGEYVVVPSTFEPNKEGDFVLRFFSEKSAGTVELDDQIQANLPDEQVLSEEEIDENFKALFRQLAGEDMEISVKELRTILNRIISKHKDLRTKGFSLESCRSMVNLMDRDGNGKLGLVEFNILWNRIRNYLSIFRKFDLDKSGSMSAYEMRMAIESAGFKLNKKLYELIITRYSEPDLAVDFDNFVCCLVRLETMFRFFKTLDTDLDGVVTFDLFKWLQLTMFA
T1 sequence (P04632 1-268 partner): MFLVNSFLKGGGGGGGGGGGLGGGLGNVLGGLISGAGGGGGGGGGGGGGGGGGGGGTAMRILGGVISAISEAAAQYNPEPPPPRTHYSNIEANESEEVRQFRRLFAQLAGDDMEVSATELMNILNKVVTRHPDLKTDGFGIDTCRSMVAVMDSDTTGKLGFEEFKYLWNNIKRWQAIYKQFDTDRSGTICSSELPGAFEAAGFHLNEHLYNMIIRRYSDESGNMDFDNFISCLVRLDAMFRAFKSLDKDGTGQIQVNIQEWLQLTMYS
Procedure: (§1) Biochemical inhibition of Calpains 1, 2, and 9.
(§2) Calpains 1, 2, and 9 activity and inhibition thereof are assessed by means of a continuous fluorescence assay. The SensoLyte 520 Calpain substrate (Anaspec Inc) is optimized for detecting calpain activity. This substrate contains a novel internally quenched 5-FAM/QXLTM 520 FRET pair. Calpains 1, 2 and 9 cleave the FRET substrate into two separate fragments resulting in an increase of 5-FAM fluorescence that is proportional to calpain activity.
(§3) Assays are typically setup in black 384-well plates using automated liquid handling as follows. Calpain assay base buffer typically contains 50 mM Tris, pH 7.5, 100 mM NaCl and 1 mM DTT. Inhibitors are serially diluted in DMSO and used to setup 2× mixtures with calpains in the aforementioned buffer. After incubation at ambient temperature (25 C), the reaction is initiated by adding a 2× mix of the fluorescent peptide substrate and CaCl2 (required for in-situ calpain activation) in the same buffer. Reaction progress curve data are typically collected for 10 min using excitation/emission wavelengths of 490 nm/520 nm on SpectraMax i3x or the FLIPR-Tetra plate readers (Molecular Devices Inc). Reaction rates were calculated from progress curve slopes typically over 1-5 min. Dose response curves (rate vs. log inhibitor concentration) were typically fit to a 4-parameter logistic function to extract IC50 values.
Column A: Human Calpain 1/NS1 IC50 (nM)_MEAN

Human Calpain 2/NS1 = target: T2, Human Calpain 2/NS1 (Homo sapiens, UniProt P17655); test: Biochemical inhibition of Calpain 2, continuous fluorescence (FRET) assay; conditions: mean; class symbols; read-out: Human Calpain 2/NS1 IC50 (nM)_MEAN
T2 sequence (P17655 1-700): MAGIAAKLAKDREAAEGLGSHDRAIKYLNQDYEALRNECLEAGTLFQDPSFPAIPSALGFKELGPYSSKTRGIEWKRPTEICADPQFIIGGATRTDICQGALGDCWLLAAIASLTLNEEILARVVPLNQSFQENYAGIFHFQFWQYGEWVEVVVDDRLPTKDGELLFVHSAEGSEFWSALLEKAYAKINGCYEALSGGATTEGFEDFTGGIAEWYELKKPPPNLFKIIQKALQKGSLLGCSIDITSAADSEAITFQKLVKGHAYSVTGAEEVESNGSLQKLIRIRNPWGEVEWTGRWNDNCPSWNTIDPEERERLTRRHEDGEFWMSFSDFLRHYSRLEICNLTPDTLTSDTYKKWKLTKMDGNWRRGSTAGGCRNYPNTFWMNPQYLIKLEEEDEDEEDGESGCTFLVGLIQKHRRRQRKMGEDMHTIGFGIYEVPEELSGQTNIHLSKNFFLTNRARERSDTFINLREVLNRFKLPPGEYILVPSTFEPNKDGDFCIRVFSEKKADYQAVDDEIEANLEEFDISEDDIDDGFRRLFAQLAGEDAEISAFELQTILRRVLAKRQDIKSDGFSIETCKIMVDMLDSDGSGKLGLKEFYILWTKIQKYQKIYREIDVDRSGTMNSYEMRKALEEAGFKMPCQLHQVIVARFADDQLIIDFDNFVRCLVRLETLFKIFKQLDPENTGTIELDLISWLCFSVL
T2 sequence (P04632 1-268 partner): T1 sequence (P04632 1-268 partner)
Procedure: as §1, §2, §3
Column B: Human Calpain 2/NS1 IC50 (nM)_MEAN

Human Calpain 9/NS1 = target: T3, Human Calpain 9/NS1 (Homo sapiens, UniProt O14815); test: Biochemical inhibition of Calpain 9, continuous fluorescence (FRET) assay; conditions: mean; class symbols; read-out: Human Calpain 9/NS1 IC50 (nM)_MEAN
T3 sequence (O14815 1-690): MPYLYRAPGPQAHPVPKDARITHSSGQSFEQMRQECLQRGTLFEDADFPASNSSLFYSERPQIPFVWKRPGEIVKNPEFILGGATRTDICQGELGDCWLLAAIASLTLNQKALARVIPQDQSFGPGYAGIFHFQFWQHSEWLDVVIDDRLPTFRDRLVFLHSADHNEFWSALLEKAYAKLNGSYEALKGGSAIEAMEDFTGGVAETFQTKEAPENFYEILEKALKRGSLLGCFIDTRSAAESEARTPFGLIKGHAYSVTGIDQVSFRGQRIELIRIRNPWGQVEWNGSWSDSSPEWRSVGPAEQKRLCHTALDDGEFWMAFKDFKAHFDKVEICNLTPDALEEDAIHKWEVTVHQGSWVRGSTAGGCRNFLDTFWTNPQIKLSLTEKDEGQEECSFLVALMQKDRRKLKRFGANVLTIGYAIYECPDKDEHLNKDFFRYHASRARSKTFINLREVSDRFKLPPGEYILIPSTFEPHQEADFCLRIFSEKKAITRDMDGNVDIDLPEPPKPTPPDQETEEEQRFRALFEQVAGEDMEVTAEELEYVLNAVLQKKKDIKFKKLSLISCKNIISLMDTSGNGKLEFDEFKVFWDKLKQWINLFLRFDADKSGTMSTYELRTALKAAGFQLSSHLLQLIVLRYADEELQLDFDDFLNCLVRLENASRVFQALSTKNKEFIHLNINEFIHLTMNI
T3 sequence (P04632 1-268 partner): T1 sequence (P04632 1-268 partner)
Procedure: as §1, §2, §3
Column C: Human Calpain 9/NS1 IC50 (nM)_MEAN • A: <3 uM; • B: 3-10 uM; • C: >10 uM;

CC(C)C[C@H](NC(=O)[C@@H](NC(=O)OCc1ccccc1)C(C)C)C(=O)NC1CCCNC(=O)C1=O (stereo partly drawn) [Compound 2]
IC50 (Human Calpain 1/NS1): > 10000 nM
IC50 (Human Calpain 2/NS1): 3000 to 10000 nM
IC50 (Human Calpain 9/NS1): > 10000 nM

CC(C)[C@H](NC(=O)OCc1ccccc1)C(=O)NC1CCCN(C)C(=O)C1=O (stereo partly drawn) [Compound 6]
IC50 (Human Calpain 1/NS1): > 10000 nM
IC50 (Human Calpain 2/NS1): > 10000 nM
IC50 (Human Calpain 9/NS1): > 10000 nM

CC(C)[C@H](NC(=O)OCc1ccccc1)C(=O)NC1CCCNC(=O)C1=O (stereo partly drawn) [Compound 1]
IC50 (Human Calpain 1/NS1): 3000 to 10000 nM
IC50 (Human Calpain 2/NS1): 3000 to 10000 nM
IC50 (Human Calpain 9/NS1): > 10000 nM

CC(C)[C@H](NC(=O)OCc1ccccc1)C(=O)NC1CCNC(=O)C1=O (stereo partly drawn) [Compound 5]
IC50 (Human Calpain 1/NS1): > 10000 nM
IC50 (Human Calpain 2/NS1): > 10000 nM
IC50 (Human Calpain 9/NS1): > 10000 nM

CC(C)[C@H](NS(=O)(=O)c1ccc(F)cc1)C(=O)NC1CCCNC(=O)C1=O (stereo partly drawn) [Compound 3]
IC50 (Human Calpain 1/NS1): > 10000 nM
IC50 (Human Calpain 2/NS1): > 10000 nM
IC50 (Human Calpain 9/NS1): > 10000 nM

CC(C)[C@H](NC(=O)OCc1ccccc1)C(=O)N[C@H]1CCCCCCCNC(=O)C1=O [Compound 9]
IC50 (Human Calpain 1/NS1): < 3000 nM
IC50 (Human Calpain 2/NS1): < 3000 nM
IC50 (Human Calpain 9/NS1): < 3000 nM

CC(C)[C@H](NC(=O)OCc1ccccc1)C(=O)NC1CCCCCCNC(=O)C1=O (stereo partly drawn) [Compound 4]
IC50 (Human Calpain 1/NS1): < 3000 nM
IC50 (Human Calpain 2/NS1): < 3000 nM
IC50 (Human Calpain 9/NS1): < 3000 nM

O=C1NCCCCCC[C@H](NC(=O)c2ccccc2-c2ccccc2)C1=O [Compound 8]
IC50 (Human Calpain 1/NS1): 3000 to 10000 nM
IC50 (Human Calpain 2/NS1): < 3000 nM
IC50 (Human Calpain 9/NS1): < 3000 nM

— patent US10590084B2, “Cyclic keto-amide compounds as calpain modulators and methods of production and use thereof” (Blade Therapeutics, Inc., priority 2016, dated 2020)
